IC50 and EC50 data for 13 molecules are collected here from ChEMBL document CHEMBL5512632, “Unlocking the potential of 1,4-naphthoquinones: A comprehensive review of their anticancer properties” (Eur J Med Chem, 2024).

One assay relates to THP-1. Put plainly: Antiproliferative activity against human THP-1 cells assessed as inhibition of cell growth. The class given is functional, cell-based.
The next assay has as its system K562. Put plainly: Antiproliferative activity against human K562 cells assessed as inhibition of cell growth. The assay is classed as functional, cell-based.
Another assay deals with MV4-11. As to the kind of experiment: Cytotoxicity against human MV4-11 cells. The class given is functional, cell-based.
For assay [1], the system named is MCF7. As to the kind of experiment: Antiproliferative activity against human MCF7 cells assessed as inhibition of cell growth incubated for 24 hrs by MTT assay. The class given is functional, cell-based. The following applies: MCF7, 24 h. On the technique in general: Tetrazolium dyes change colour on reduction, which living cells bring about.
In assay [2] the test system is HCT-15. As to the kind of experiment: Antiproliferative activity against human HCT-15 cells assessed as inhibition of cell growth incubated for 24 hrs by MTT assay. The assay is classed as functional, cell-based. To be noted: HCT-15, 24 h.
The subject of a further assay is PC-3. As to the kind of experiment: Antiproliferative activity against human PC-3 cells assessed as inhibition of cell growth incubated for 72 hrs by MTT assay. The class given is functional, cell-based. The following applies: PC-3, 72 h.
The subject of the next assay is LNCaP. Put plainly: Antiproliferative activity against human LNCaP cells assessed as inhibition of cell growth incubated for 72 hrs by MTT assay. The class given is functional, cell-based.
Another assay deals with SGC-7901. As to the kind of experiment: Antiproliferative activity against human SGC-7901 cells assessed as inhibition of cell growth incubated for 48 hrs by MTT assay. The assay is classed as functional, cell-based. To be noted: SGC-7901, 48 h.
The test system of another assay is HepG2. Put plainly: Antiproliferative activity against human HepG2 cells assessed as inhibition of cell growth incubated for 48 hrs by MTT assay. The class given is functional, cell-based. To be noted: HepG2, 48 h.
Assay [3] deals with MCF7. As to the kind of experiment: Antiproliferative activity against human MCF7 cells. The assay is classed as functional, cell-based.
Another assay deals with NCI-H187. As to the kind of experiment: Antiproliferative activity against human NCI-H187 cells. The class given is functional, cell-based.
The subject of assay [4] is HCT-15. Put plainly: Cytotoxicity against human HCT-15 cells incubated for 48 hrs by MTT assay. The class given is functional, cell-based. The following applies: HCT-15, 48 h.
In a further assay the test system is HCT-116. Put plainly: Cytotoxicity against human HCT-116 cells incubated for 48 hrs by MTT assay. The assay is classed as functional, cell-based. The following applies: HCT-116, 48 h.
For assay [5], the system named is AGS. Put plainly: Antiproliferative activity against human AGS cells assessed as inhibition of cell growth incubated for 3 days by MTT assay. To be noted: 72 h. The assay is classed as functional, cell-based.
The next assay relates to HeLa. As to the kind of experiment: Cytotoxicity against human HeLa cells assessed as inhibition of cell growth incubated for 48 hrs by MTT assay. The class given is functional, cell-based.
The test system of the next assay is SK-MEL-5. As to the kind of experiment: Antiproliferative activity against human SK-MEL-5 cells assessed as inhibition of cell growth incubated for 96 hrs by SRB assay. The class given is functional, cell-based. To be noted: SK-MEL-5, 96 h.
For another assay, the system named is T-24. Put plainly: Cytotoxicity against human T24 cells assessed as reduction in cell growth incubated for 48 hrs by MTT assay. The class given is functional, cell-based. To be noted: T-24, 48 h.
Another assay deals with DU-145. As to the kind of experiment: Cytotoxicity against human DU-145 cells assessed as reduction in cell growth incubated for 48 hrs by MTT assay. The assay is classed as functional, cell-based. The following applies: DU-145, 48 h.
In assay [6] the test system is MCF7. Put plainly: Cytotoxicity against human MCF7 cells assessed as reduction in cell growth incubated for 48 hrs by MTT assay. The class given is functional, cell-based. To be noted: MCF7, 48 h.
Another assay deals with HT-29. Put plainly: Antiproliferative activity against human HT-29 cells assessed as inhibition of cell growth incubated for 48 hrs by MTT assay. The assay is classed as functional, cell-based. To be noted: HT-29, 48 h.
Assay [7] has as its system AGS. Put plainly: Antiproliferative activity against human AGS cells assessed as inhibition of cell growth incubated for 24 hrs by MTT reagent based microplate reader assay. The assay is classed as functional.
Another assay has as its system MKN-28. As to the kind of experiment: Antiproliferative activity against human MKN-28 cells assessed as inhibition of cell growth incubated for 24 hrs by MTT reagent based microplate reader assay. The class given is functional. The following applies: MKN-28, 24 h.
Another assay has as its system MKN-45. As to the kind of experiment: Antiproliferative activity against human MKN-45 cells assessed as inhibition of cell growth incubated for 24 hrs by MTT reagent based microplate reader assay. To be noted: MKN-45, 24 h. The assay is classed as functional.
Assay [8] can be described thus: Antiproliferative activity against human SNU-216 cells assessed as inhibition of cell growth incubated for 24 hrs by MTT reagent based microplate reader assay. The assay is classed as functional. The following applies: SNU-216, 24 h.
Assay [9] in a line: Antiproliferative activity against human SNU-484 cells assessed as inhibition of cell growth incubated for 24 hrs by MTT reagent based microplate reader assay. The following applies: SNU-484, 24 h. The assay is classed as functional.
The test system of another assay is NCI-N87. Put plainly: Antiproliferative activity against human NCI-N87 cells assessed as inhibition of cell growth incubated for 24 hrs by MTT reagent based microplate reader assay. The assay is classed as functional. The following applies: NCI-N87, 24 h.
Assay [10] can be described thus: Antiproliferative activity against human YCC-1 cells assessed as inhibition of cell growth incubated for 24 hrs by MTT reagent based microplate reader assay. The assay is classed as functional. The following applies: YCC-1, 24 h.
A short description of assay [11]: Antiproliferative activity against human YCC-6 cells assessed as inhibition of cell growth incubated for 24 hrs by MTT reagent based microplate reader assay. The class given is functional. The following applies: YCC-6, 24 h.
The nature of assay [12]: Antiproliferative activity against human YCC-16 cells assessed as inhibition of cell growth incubated for 24 hrs by MTT reagent based microplate reader assay. The class given is functional. To be noted: YCC-16, 24 h.

Molecules are shown by their SMILES.

As to `CCNC1=CC(=O)c2ccccc2C1=O`, the IC50 (in general, the concentration needed to halve the response being measured) was 23000 nM in the assay on THP-1 and 78000 nM with K562.

As for `O=C(Cc1ccc(C(=O)NO)cc1)NC1=CC(=O)c2ccccc2C1=O`, in the assay with MV4-11, the EC50 (usually the concentration giving half of the maximal effect) was determined as 367 nM.

For `O=C(NNC1=CC(=O)c2ccccc2C1=O)c1ccncc1`, the IC50 in the assay with MCF7 [1] came out at 20900 nM; with HCT-15 [2], 28200 nM.

For `O=C1c2ccccc2C(=O)c2oc(-c3ccccc3Cl)nc21`, the IC50 with PC-3 worked out at 1260 nM; in the assay on LNCaP it was 100 nM.

Consider `COc1ccc(C2C3=C(Nc4nc(SC)nc(N)c42)C(=O)c2ccccc2C3=O)cc1Br` (centres undefined), for which the IC50 came to 4390 nM in the assay with SGC-7901 and 5910 nM in the assay on HepG2.

With `O=C(/C=C/C=C/c1ccc2c(c1)OCO2)OC1=CC(=O)c2ccccc2C1=O`, the IC50 in the assay on MCF7 [3] is 3840 nM; in the assay with NCI-H187, 2240 nM.

In the case of `C=CC(C)(C)C(SC(=O)c1cc(OC)c(OC)c(OC)c1)c1cc(OC)c2c(c1OC)/C(=N\O)C=C/C2=N\O` (centres undefined), the IC50 in the assay on HCT-15 [4] is 3670 nM; with HCT-116, 4950 nM.

Take `Cn1c(=O)c2c3c(c(-c4cccs4)nc2n(C)c1=O)C(=O)c1ccccc1C3=O`: the IC50 in the assay on AGS [5] amounted to 3300 nM.

`CC(C)(C)SC1=C(Cl)C(=O)c2ccccc2C1=O`: the IC50 in the assay on HeLa was found to be 10200 nM.

Consider `C=CC/N=c1\sc2c(n1NC(=O)c1cc3ccc1CCc1ccc(cc1)CC3)C(=O)c1ccccc1C2=O`, for which the IC50 in the assay on SK-MEL-5 was 810 nM.

As to `COc1cc(NC2=C(C(=O)c3ccccc3)C(=O)c3ccccc3C2=O)cc(OC)c1OC`, the figures for the IC50 with T-24, in the assay on DU-145 and in the assay with MCF7 [6] were 11600 nM, 8120 nM and 7530 nM, respectively.

`O=C(c1cccs1)c1cc2c(s1)C(=O)c1ccccc1C2=O`: the IC50 in the assay on HT-29 is 1730 nM.

Take `COc1ccc(SC2=CC(=O)c3c(OC)ccc(OC)c3C2=O)cc1`: the 50% inhibitory concentration (IC50) in the assay with AGS [7] is 320 nM; in the assay with MKN-28 it was 560 nM; in the assay on MKN-45 it was 630 nM; in [8], 1220 nM; in assay [9] it was 640 nM; with NCI-N87 it was 730 nM. For the same molecule, the IC50 in assay [10] amounted to 710 nM; in assay [11], 420 nM; in assay [12], 1350 nM.
